Data reported in paper PMC4452251, “Characterization of a Thioredoxin-1 Gene from Taenia solium and Its Encoding Product” (BioMed Research International, 2015).

Biological target: T1, rTsTrx-1 (Taenia solium thioredoxin-1) (Taenia solium, UniProt A0A0A1E9C2)
T1 construct: gene Trx; full-length coding region, 107 residues, 11,579 Da, active site CGPC; N-terminal six-histidine tag (pRSETB), no tag removal stated
T1 sequence (A0A0A1E9C2 1-107): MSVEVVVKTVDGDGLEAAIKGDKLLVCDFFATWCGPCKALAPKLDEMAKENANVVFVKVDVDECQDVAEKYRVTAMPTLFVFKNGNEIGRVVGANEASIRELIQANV
Assay: DTT/insulin reduction turbidity assay at […] nm
Format: biochemical
Conditions: 20 ug enzyme (1.5 uM) preincubated with MG 30 min at 37 C; insulin 160 uM, 1 mM DTT, 2 mM EDTA, potassium phosphate pH 6.5

## CC(=O)C=O [MG, methylglyoxal]
  % decrease of activity at 3 mM: 25%
